Experiments:
[1] = test system: B16F10 cells; assay: Melanin content (anti-melanogenesis) assay in IBMX/α-MSH-stimulated cells; type: cell-based, murine; settings: 72 h; for effect on cellular melanin content: B16F10, 20 µM, IBMX + α-MSH; for effect on cellular melanin content increased by stimulators: B16F10, 5, 10, 20 µM, IBMX 200 µM + α-MSH 1 µM
Method: Cells were exposed to four different concentrations (0, 5, 10, and 20 µM) of 1 and 2 prior to treatment with stimulators (3-isobutyl-1-methylxanthine (IBMX, 200 µM), and α-melanocyte stimulating hormone (α-MSH, 1 µM)). After 72 h of incubation, the effects of 1 and 2 on melanin production were determined. Cellular melanin levels were assessed by measuring melanin levels in cell lysates.
The melanin content assay standard procedure was used to investigate the anti-melanogenic effect of (Z)-BPT derivatives 1 and 2 with a few minor modifications. Briefly, B16F10 melanoma cells were seeded in each well of a 6-well plate at a density of 1 × 10^5 cells/well and allowed to adhere to the well bottom under conditions that were identical to those used for cell culture. […] For 72 h, B16F10 cells were incubated at 37 °C in a humid environment containing 5% CO2 after being treated with IBMX and α-MSH. To determine the intracellular melanin content, B16F10 cells stimulated with IBMX and α-MSH for 72 h were rinsed twice with PBS and incubated in 200 µL 1N-NaOH solution including 10% dimethyl sulfoxide (DMSO) at 60 °C. The cell lysates were transferred to a 96-well plate after an hour of incubation, and the absorbance of the melanin content was calculated using a VersaMax^TM microplate reader (Molecular Devices, Sunnyvale, CA, USA) to determine intracellular melanin levels. Each experiment was performed independently in triplicates.
Figure 7 Effects of (Z)-BPT derivatives 1 and 2 on cellular melanin levels in B16F10 cells. […] (A) Derivative 1 and (B) derivative 2.

[2] = DPPH radical scavenging assay; settings: 1 mM, 30 min in the dark
Method: The 2,2-diphenyl-1-picrylhydrazyl (DPPH) radical scavenging capacity of the (Z)-BPT derivatives (1 mM) was investigated using L-ascorbic acid (1 mM, vitamin C) as a positive control. […] L-Ascorbic acid scavenged 97.1% of the DPPH radical, whereas (Z)-BPT derivative 1 with a 4-hydroxyl substituent on the β-phenyl ring scavenged 46.5% of the DPPH radical.
The antioxidant properties of (Z)-BPT derivatives 1–14 against DPPH (2,2-diphenyl-1-picrylhydrazyl) radicals were examined using a DPPH radical scavenging assay, as previously described with minor modifications. DPPH solution (180 µL, 0.2 mM) in methanol was mixed with a (Z)-BPT derivative solution (1–14, 20 µL, 10 mM) in dimethyl sulfoxide in each well of a 96-well plate, and the mixture was kept for 30 min in the dark at room temperature. The absorbance at 517 nm was measured using a VersaMax ™ microplate reader (Molecular Devices, Sunnyvale, CA, USA). The capacity of the derivatives to scavenge DPPH radicals was compared with that of L-ascorbic acid, which was used as the positive control. Each experiment was run independently in triplicates.
Figure 10 The radical scavenging effect of (Z)-BPT derivatives on DPPH. The DPPH radical scavenging activities of test samples (1 mM) were assayed after being left in the dark for 30 min. Distilled water and dimethyl sulfoxide (DMSO) were utilized as the solvents for the positive control L-ascorbic acid and the (Z)-BPT derivatives, respectively. Asterisks (***) represent a significant difference between L-ascorbic acid and the (Z)-BPT derivatives, and results are expressed as the mean ± standard error of three different experiments. *** p < 0.001.

[3] = test system: tyrosinase protein expression in B16F10 cells; assay: Western blot of tyrosinase protein in IBMX/α-MSH-stimulated cells; type: cell-based, murine; settings: for tyrosinase expression level relative to untreated control: B16F10, 20 µM, IBMX 200 µM + α-MSH 1 µM, stimulator alone 6.6-fold (for 1), 5.7-fold (for 2); for effect on tyrosinase expression levels: B16F10, 5, 10, 20 µM, IBMX + α-MSH
Method: We investigated whether the derivatives 1 and 2 could influence the expression of tyrosinase protein using Western blotting. […] At 20 µM, derivatives 1 and 2 reduced the tyrosinase expression levels that increased during the stimulator treatment to 4.4- and 3.1-fold, respectively, implying that derivatives 1 and 2 may, in part, contribute to their anti-melanogenic actions by inhibiting tyrosinase expression.
After stimulating murine melanoma (B16F10) cells with α-MSH and IBMX for 24 h in the presence or absence of the tested derivatives at the indicated concentrations, the cells were lysed with lysis buffer containing protease and phosphatase inhibitors. Protein concentrations were determined using a BCA protein assay kit, according to the manufacturer’s instructions (Pierce, Rockford, IL, USA). Lysate proteins in each sample (10–20 µg) were subjected to 9% sodium dodecyl sulfate–polyacrylamide gel electrophoresis and electrophoretically transferred to a PVDF membrane (Millipore, Billerica, MA, USA) using a semi-dry system (Bio-Rad, Hercules, CA, USA). The membranes were incubated with 5% non-fat milk in TBST (0.1 M Tris-HCl, pH 7.5, 1.5 M NaCl, and 1% Tween 20) for 2 h. After blocking, the membranes were incubated with primary antibodies at 4 °C overnight. The following antibodies were used: tyrosinase and β-actin primary antibodies, as well as horseradish peroxidase-conjugated anti-mouse and anti-goat secondary antibodies (Santa Cruz Biotechnology, Dallas, TX, USA). The protein bands were visualized using the SuperSignal West Pico Chemiluminescence assay kit (Advansta, San Jose, CA, USA) and the Davinch–Chem program (Davinch-K, Seoul, Republic of Korea). The relative intensities were acquired using CS Analyzer 3.2 (Densitograph) image analysis software (http://www.attokorea.co.kr, accessed on 21 November 2022).
Figure 13 Effects of (Z)-BPT derivatives 1 and 2 on tyrosinase expression. Tyrosinase expression levels were evaluated in the presence of a stimulator (1 µM of α-MSH plus 200 µM of IBMX) with various concentrations (5, 10, and 20 µM) of derivatives 1 and 2 in B16F10 cells. ^### p < 0.001; * p < 0.05, and ** p < 0.01.

Structure (SMILES): O=C1N=C(c2ccccc2)S/C1=C\c1ccc(O)cc1 [Compound 1, (Z)-5-(4-Hydroxybenzylidene)-2-phenylthiazol-4(5H)-one]
- effect on cellular melanin content [1]: more effectively than kojic acid
- effect on cellular melanin content increased by stimulators [1]: significantly and dose-dependently diminished
- DPPH radical scavenging activity [2]: 46.5%
- tyrosinase expression level relative to untreated control [3]: 4.4 fold
- effect on tyrosinase expression levels [3]: significantly reduced the tyrosinase expression levels in a dose-dependent manner

Structure (SMILES): O=C1N=C(c2ccccc2)S/C1=C\c1ccc(O)cc1O [Compound 2, (Z)-5-(2,4-Dihydroxybenzylidene)-2-phenylthiazol-4(5H)-one]
- effect on cellular melanin content [1]: below those of the non-treated control
- effect on cellular melanin content increased by stimulators [1]: significantly and dose-dependently diminished
- DPPH radical scavenging activity [2]: 66.9%
- tyrosinase expression level relative to untreated control [3]: 3.1 fold
- effect on tyrosinase expression levels [3]: significantly reduced the tyrosinase expression levels in a dose-dependent manner

From article PMC10144242, “Design, Synthesis, In Vitro, and In Silico Insights of 5-(Substituted benzylidene)-2-phenylthiazol-4(5H)-one Derivatives: A Novel Class of Anti-Melanogenic Compounds” (Molecules, 2023)
